The text below walks through data of patent EP0517262A1, “Trifluorothymidine derivatives, process for producing the same and anti-cancer agent containing the same” (priority 1991, dated 1992).

One series deals with Meth A fibrosarcoma. Kind of series: Pharmacological Test 1 (anti-cancer activity): tumor weight ratio T/C of subcutaneously transplanted tumor. The series is classed as in vivo, mice. Conditions: Mus musculus, 336 h.
The nature of series [1]: Pharmacological Test 1: body weight change of the tumor-bearing mice. Conditions: day 1 - day 7, female CDF1 mice with Meth A fibrosarcoma.
Description: (§1) Female CDF₁ mice of 6 weeks old were used. As the tumor, Meth A fibrosarcoma was used.
(§2) To the right abdomen of each mouse, 2 x 10⁶ tumor cells were subcutaneously transplanted. On the next day (day 1), the mice were randomly grouped and the suspension was compulsively administered to the mice by using an oral sound for successive 7 days (day 1 - day 7).
For the next series, the system named is L1210 leukemia. Conditions: experimental model tumor; Cancer Research, Vol. 24, p.1979, 1964; cited from earlier work.
For series [2] the following is noted: cited from earlier work.
The test system of the next series is adenocarcinoma-755. Conditions: experimental model tumor; Cancer Research, Vol. 24, p.1979, 1964; cited from earlier work.
Where [3] appears, read: po, read-out: Tumor Weight Ratio (T/C : %).

Protocol for Meth A fibrosarcoma: as §1, §2
On day 14, the tumors were removed and weighed. The tumor growth ratio (%) was calculated according to the following equation: Tumor Growth Ratio (%) = T/C x 100 [formula] wherein T means the average weight of tumor of the treated group and C means the average weight of tumor of the control group.

For the compound `C#CCO[C@H]1C[C@H](n2cc(C(F)(F)F)c(=O)[nH]c2=O)O[C@@H]1COC(=O)CCCCCCCCCCCCCCCCC` [Example 29], the response vs control in vivo at 18 mg/kg in the series with Meth A fibrosarcoma (18.0 mg/kg oral, day 1 - day 7, tumors weighed on day 14) came out at 52%. Further, in the series with Meth A fibrosarcoma (71.9 mg/kg oral, day 1 - day 7, tumors weighed on day 14), the response vs control in vivo at 71.9 mg/kg is 21%. The figures for the “Body Weight Change” value in series [1] (18.0 mg/kg oral) and in series [1] (71.9 mg/kg oral) were -1.2 g and -6.9 g, respectively.
For the compound `C#CCO[C@H]1C[C@H](n2cc(C(F)(F)F)c(=O)n(C(=O)c3ccccc3)c2=O)O[C@@H]1CO` [Example 6, 3-benzoyl-3'-O-propargyl-α,α,α-trifluorothymidine], in the series with Meth A fibrosarcoma (22.7 mg/kg oral, day 1 - day 7, tumors weighed on day 14), the response vs control in vivo at 22.7 mg/kg came to 28.3%. The response vs control in vivo at 68.1 mg/kg in the series with Meth A fibrosarcoma (68.1 mg/kg oral, day 1 - day 7, tumors weighed on day 14) came to 2.6%. Moreover, the “Body Weight Change” value in series [1] (22.7 mg/kg oral) was -3.8 g; in series [1] (68.1 mg/kg oral) it was -4.7 g.
In the case of `C#CCO[C@H]1C[C@H](n2cc(C(F)(F)F)c(=O)n(C(=O)c3ccc(OC)cc3)c2=O)O[C@@H]1CO` [Example 45], the response vs control in vivo at 28 mg/kg in the series on Meth A fibrosarcoma (28.0 mg/kg oral, day 1 - day 7, tumors weighed on day 14) is 64.6%. Moreover, the response vs control in vivo at 84.1 mg/kg with Meth A fibrosarcoma (84.1 mg/kg oral, day 1 - day 7, tumors weighed on day 14) came out at 6.9%. The “Body Weight Change” value is 1.3 g in series [1] (28.0 mg/kg oral) and -4.5 g in series [1] (84.1 mg/kg oral).
Turning to `C#CCO[C@H]1C[C@H](n2cc(C(F)(F)F)c(=O)[nH]c2=O)O[C@@H]1CO[Si](C)(C)C(C)(C)C` [Example 1, 5'-O-(t-butyldimethylsilyl)-3'-O-propargyl-α,α,α-trifluorothymidine], in the series with Meth A fibrosarcoma (setting [3]), the response vs control in vivo at 13.4 mg/kg amounted to 67% and the response vs control in vivo at 53.7 mg/kg was determined as 33%. Further, the “Body Weight Change” value in series [1] (13.4 mg/kg oral) was -0.3 g. Besides, the “Body Weight Change” value in series [1] (53.7 mg/kg oral) is -4.9 g.
For `C#CCO[C@H]1C[C@H](n2cc(C(F)(F)F)c(=O)[nH]c2=O)O[C@@H]1CO` [Example 2, 3'-O-propargyl-α,α,α-trifluorothymidine], in the series on Meth A fibrosarcoma (17.3 mg/kg oral, day 1 - day 7, tumors weighed on day 14), the response vs control in vivo at 17.3 mg/kg stood at 16.6%. Also, in the series with Meth A fibrosarcoma (51.9 mg/kg oral, day 1 - day 7, tumors weighed on day 14), the response vs control in vivo at 51.9 mg/kg was 7.7%. Besides, the “Body Weight Change” value in series [1] (17.3 mg/kg oral) is -0.5 g; in series [1] (51.9 mg/kg oral), -4.9 g.
Consider `C#CCO[C@H]1C[C@H](n2cc(C(F)(F)F)c(=O)n(C(=O)c3ccco3)c2=O)O[C@@H]1CO` [Example 47], for which the response vs control in vivo at 25.6 mg/kg in the series with Meth A fibrosarcoma (25.6 mg/kg oral, day 1 - day 7, tumors weighed on day 14) is 90.3%. Also, the response vs control in vivo at 76.9 mg/kg in the series on Meth A fibrosarcoma (76.9 mg/kg oral, day 1 - day 7, tumors weighed on day 14) was determined as 21.7%. Also, the “Body Weight Change” value in series [1] (25.6 mg/kg oral) is 0.7 g; in series [1] (76.9 mg/kg oral), -4.4 g.
As for `C#CCO[C@H]1C[C@H](n2cc(C(F)(F)F)c(=O)[nH]c2=O)O[C@@H]1CO[Si](C)(C)C(C)C` [Example 7, 5'-O-isopropyldimethylsilyl-3'-O-propargyl-α,α,α-trifluorothymidine], in the series with Meth A fibrosarcoma (setting [3]), the response vs control in vivo at 26 mg/kg came to 38%. The response vs control in vivo at 52 mg/kg in the series with Meth A fibrosarcoma (setting [3]) is 25%. In addition, the “Body Weight Change” value in series [1] (26.0 mg/kg oral) is -0.2 g; in series [1] (52.0 mg/kg oral), -4.0 g.
For the compound `C#CCO[C@H]1C[C@H](n2cc(C(F)(F)F)c(=O)[nH]c2=O)O[C@@H]1COC(=O)[C@@H]1CCCN1CCCCCCCCCCCC.Cl` [Example 14, 5'-O-(N-dodecyl-L-prolyl)-3'-O-propargyl-α,α,α-trifluorothymidine hydrochloride], the response vs control in vivo at 38 mg/kg in the series on Meth A fibrosarcoma (38.0 mg/kg oral, day 1 - day 7, tumors weighed on day 14) stood at 32%. Moreover, the response vs control in vivo at 76 mg/kg in the series on Meth A fibrosarcoma (76.0 mg/kg oral, day 1 - day 7, tumors weighed on day 14) was found to be 15%. Further, the figures for the “Body Weight Change” value in series [1] (38.0 mg/kg oral) and in series [1] (76.0 mg/kg oral) were -0.2 g and -4.7 g, respectively.
`C#CCO[C@H]1C[C@H](n2cc(C(F)(F)F)c(=O)[nH]c2=O)O[C@@H]1CO[Si](CC)(CC)CC` [Example 13, 5'-O-(triethylsilyl)-3'-O-propargyl-α,α,α-trifluorothymidine]: the response vs control in vivo at 27 mg/kg with Meth A fibrosarcoma (setting [3]) was found to be 57%. Also, the response vs control in vivo at 54 mg/kg with Meth A fibrosarcoma (setting [3]) turned out to be 37%. The “Body Weight Change” value was 0.8 g in series [1] (27.0 mg/kg oral) and -2.9 g in series [1] (54.0 mg/kg oral).
With `C#CCO[C@H]1C[C@H](n2cc(C(F)(F)F)c(=O)[nH]c2=O)O[C@@H]1COC(=O)CN1CCN(CCCCCCCCC)CC1.Cl.Cl` [Example 11, 5'-O-{2-(4-nonylpiperazin-1-yl)acetyl}-3'-O-propargyl-α,α,α-trifluorothymidine dihydrochloride], the response vs control in vivo at 37 mg/kg in the series with Meth A fibrosarcoma (37.0 mg/kg oral, day 1 - day 7, tumors weighed on day 14) was 58%. In addition, in the series with Meth A fibrosarcoma (75.0 mg/kg oral, day 1 - day 7, tumors weighed on day 14), the response vs control in vivo at 75 mg/kg was determined as 31%. For the same compound, the “Body Weight Change” value in series [1] (37.0 mg/kg oral) is 0.6 g; in series [1] (75.0 mg/kg oral), -2.7 g.
Take `O=c1[nH]c(=O)n([C@H]2C[C@H](O)[C@@H](CO)O2)cc1C(F)(F)F` [Example F3Thd, Trifluorothymidine]: the anti-tumor activity result in the series with L1210 leukemia and in the series on adenocarcinoma-755 was “excellent anti-tumor activity” each time. Besides, in series [2] (in vivo), the “metabolism in the body” value was “rapidly metabolized in the body”. Also, the “absorption when administered orally” value in series [2] (oral administration) was “not well absorbed when administered orally”.
